Results reported in patent publication US20120245044A1, “METHODS OF DETERMINING CHEMOTHERAPY RESPONSE IN CANCER” (TRANSLATIONAL GENOMICS RESEARCH INSTITUTE, priority 2011, published 2012).

How the values were obtained:
Format in all cases: cell-based
[1] = system: H69-GLI1 versus H69-wt SCLC cells; experiment: Drug dose response, cell viability after 72 hours, GLI1 over-expressing vs parental line
Method: (§1) (A) Drug-dose response experiment in H69-GLI1 and H69-GLI2 versus H69-wt for cisplatin. […] (C) Drug-dose response experiment in H69-GLI1 versus H69-wt for cisplatin. Methods. Two SCLC cell lines, H69 and H526, were transduced with a GLI1 over-expressing (o/e) vector (Kasper et al, 2007) to create two lines expressing the gene: H69-GLI1 and H526-GLI1. GLI1 expression was verified by qRT-PCR. Cellular proliferation was measured over a 96-hour period. To study the drug dose response, GLI1 o/e and parental lines were treated with single-agent or combination dosing of cisplatin and etoposide, and cell viability was assessed after 72 hours. Relative GLI1 expression was compared with cisplatin response in four additional SCLC cell lines (H146, […], […]). Gene expression analysis was performed on H69-GLI1 and H69 parental cells, with two replicates for each, using Agilent (Agilent Technologies, Santa Clara, Calif.) 44K expression arrays. Data was normalized and analyzed using Genespring software (Agilent Technologies, Santa Clara, Calif.).

[2] = system: H69-GLI2 versus H69-wt SCLC cells; experiment: Drug dose response, cell viability after 72 hours; conditions: single agent, experiment H69-GLI1 and H69-GLI2 versus H69-wt (FIG. 1A/1B)
Method: as §1

[3] = system: H526-GLI1 versus H526-wt SCLC cells; experiment: Drug dose response, cell viability after 72 hours, GLI1 over-expressing vs parental line; conditions: H526-GLI1 compared to H526-wt
Method: Methods. Two SCLC cell lines, H69 and H526, were transduced with a GLI1 over-expressing (o/e) vector (Kasper et al, 2007) to create two lines expressing the gene: H69-GLI1 and H526-GLI1. GLI1 expression was verified by qRT-PCR. Cellular proliferation was measured over a 96-hour period. To study the drug dose response, GLI1 o/e and parental lines were treated with single-agent or combination dosing of cisplatin and etoposide, and cell viability was assessed after 72 hours. Relative GLI1 expression was compared with cisplatin response in four additional SCLC cell lines (H146, […], […]). Gene expression analysis was performed on H69-GLI1 and H69 parental cells, with two replicates for each, using Agilent (Agilent Technologies, Santa Clara, Calif.) 44K expression arrays. Data was normalized and analyzed using Genespring software (Agilent Technologies, Santa Clara, Calif.).

[4] = single agent, experiment H69-GLI1 and H69-GLI2 versus H69-wt (FIG. 1A/1B), viability after 72 hours

COc1cc([C@@H]2c3cc4c(cc3[C@@H](O[C@@H]3O[C@@H]5CO[C@@H](C)O[C@H]5[C@H](O)[C@H]3O)[C@H]3COC(=O)[C@H]23)OCO4)cc(OC)c1O [etoposide]
fold change between H69-GLI1 and H69-wt in drug-dose response [1, 4]: 4.55 fold | fold change between H69-GLI2 and H69-wt in drug-dose response [2]: 1.76 fold

N.N.[Cl][Pt][Cl] [cisplatin, cis-diamminedichloroplatinum(II)]
change in cisplatin resistance [3]: no significant change | shift in cisplatin resistance ([1]; H69-GLI1 compared to H69-wt, drug dose response, FIG. 1): ≥ 1.5 fold | fold change between H69-GLI1 and H69-wt in drug-dose response ([1]; experiment H69-GLI1 versus H69-wt only (FIG. 1C)): 2.77 fold | fold change between H69-GLI1 and H69-wt in drug-dose response [1, 4]: 1.76 fold | fold change between H69-GLI2 and H69-wt in drug-dose response [2]: 1.21 fold
